Experimental data from EP0788498B1, “PHENYLOXAZOLIDINONE ANTIMICROBIALS” (priority 1994, dated 1996).
Values after ≈ are worked out from the molar mass of the structure shown. Like-named read-outs stand apart in the source and are kept apart here.

Columns and labels:
S. pneumoniae UC® 9912 = assay: Minimum inhibitory concentration (MIC) by agar dilution; format: cell-based; details: Streptococcus pneumoniae
Source text: (§1) The oxazolidinone antibacterial agents of this invention have useful activity against a variety of organisms. The in vitro activity of compounds of this invention can be assessed by standard testing procedures such as the determination of minimum inhibitory concentration (MIC) by agar dilution as described in "Methods for Dilution Antimicrobial Susceptibility Tests for Bacteria That Grow Aerobically" (MFT) published Jan. 1983 by the National Committee for Clinical Laboratory Standards, 771 East Lancaster Avenue, Villanova, Pennsylvania 19084, USA. The activity of selected compounds of this invention against Staphylococcus aureus and Streptococcus pneumoniae are shown in Table 1.

S. aureus UC® 9213 = assay: as above; format: cell-based; details: Staphylococcus aureus
Source text: as §1

[1] = UC9912, in vitro, agar dilution, strain UC® 9912, read-out: Minimum Inhibitory Concentration S. pneumoniae UC® 9912
[2] = UC9213, in vitro, agar dilution, strain UC® 9213, read-out: Minimum Inhibitory Concentration S. aureus UC® 9213

| Structure (SMILES) | MIC (S. pneumoniae UC® 9912; UC9912, read-out: Minimum Inhibitory Concentration S. pneumoniae UC® 9912) [µg/mL] | MIC (S. aureus UC® 9213; UC9213, read-out: Minimum Inhibitory Concentration S. aureus UC® 9213) [µg/mL] | MIC (S. pneumoniae UC® 9912; [1]) [µg/mL] | MIC (S. aureus UC® 9213; [2]) [µg/mL] |
| --- | --- | --- | --- | --- |
| CN[C@H](CC(C)C)C(=O)N[C@H]1C(=O)N[C@@H](CC(N)=O)C(=O)N[C@H]2C(=O)N[C@H]3C(=O)N[C@H](C(=O)N[C@H](C(=O)O)c4cc(O)cc(O)c4-c4cc3ccc4O)[C@H](O)c3ccc(c(Cl)c3)Oc3cc2cc(c3O[C@@H]2O[C@H](CO)[C@@H](O)[C@H](O)[C@H]2O[C@H]2C[C@](C)(N)[C@H](O)[C@H](C)O2)Oc2ccc(cc2Cl)[C@H]1O [vancomycin, reference compound] | 0.5 (≈ 0.345 µM) | 1 (≈ 0.69 µM) | – | – |
| CC(=O)NC[C@H]1CN(c2ccc(N3C[C@@H]4OC(C)(C)O[C@@H]4C3)c(F)c2)C(=O)O1 [Example 8, (S)-N-[[3-[4-(1-Aza-5,5-dimethyl-4,6-dioxabicyclo[3,3,0]octan-1-yl)-3-fluorophenyl]-2-oxo-5-oxazolidinyl]methyl]acetamide] | – | – | 8 (≈ 20.3 µM) | 32 (≈ 81.3 µM) |
| CC(=O)NC[C@H]1CN(c2ccc(N3C[C@@H](C)[C@@H](NC(=O)CO)C3)c(F)c2)C(=O)O1 (relative stereo) [Example 15] | – | – | 2 (≈ 4.9 µM) | 16 (≈ 39.2 µM) |
| CC(=O)NC[C@H]1CN(c2ccc(N3CC(C)(O)C3)c(F)c2)C(=O)O1 [Example 7, (S)-N-[[3-[3-fluoro-4-(3-hydroxy-3-methyl-1-azetidinyl)phenyl]-2 oxo-5-oxazolidinyl]methyl]acetamide] | – | – | 2 (≈ 5.93 µM) | 8 (≈ 23.7 µM) |
| CC(=O)NC[C@H]1CN(c2ccc(N3CCC(=O)C3)c(F)c2)C(=O)O1 [Example 11, (S)-N-((3-(3-fluoro-4-(3-oxopyrrolidinyl)phenyl)-2-oxo-5-oxazolidinyl)methyl)acetamide] | – | – | 2 (≈ 5.96 µM) | 4 (≈ 11.9 µM) |
| CC(=O)NC[C@H]1CN(c2ccc(N3CC(O)C3)c(F)c2)C(=O)O1 [Example 2, (S)-N-[[3-[3-fluoro-4-(3-hydroxy-1-azetidinyl)phenyl]-2-oxo-5-oxazolidinyl]methyl]acetamide] | – | – | 2 (≈ 6.19 µM) | 4 (≈ 12.4 µM) |
| CC(=O)NC[C@H]1CN(c2ccc(N3CCC(NC(=O)CO)C3)c(F)c2)C(=O)O1 (stereo partly drawn) [Example 13, (S)-N-((3-(3-Fluoro-4-(3-(hydroxyacetylamino)pyrrolidinyl)phenyl)-2-oxo-5-oxazolidinyl)methyl)acetamide] | – | – | 2 (≈ 5.07 µM) | 16 (≈ 40.6 µM) |
| CC(=O)NC[C@H]1CN(c2ccc(N3CCC(NC(=O)COCc4ccccc4)C3)c(F)c2)C(=O)O1 (stereo partly drawn) [Example 12, (S)-N-((3-(3-Fluoro-4-(3-(phenylmethoxyacetylamino)pyrrolidinyl)phenyl)-2-oxo-5-oxazolidinyl)methyl)acetamide] | – | – | 2 (≈ 4.13 µM) | 8 (≈ 16.5 µM) |
| CON=C1CN(c2ccc(N3C[C@H](CNC(C)=O)OC3=O)cc2F)C1 [Example 5, (S)-N-[[3-[3-fluoro-4-[3-(methoxyimino)-1-azetidinyl]phenyl]-2-oxo-5-oxazolidinyl]methyl]acetamide] | – | – | 1 (≈ 2.85 µM) | 4 (≈ 11.4 µM) |
| COC1(C)CN(c2ccc(N3C[C@H](CNC(C)=O)OC3=O)cc2F)C1 [Example 6, (S)-N-[[3-[3-fluoro-4-(3-methoxy-3-methyl-1-azetidinyl)phenyl]-2-oxo-5-oxazolidinyl]methyl]acetamide] | – | – | 4 (≈ 11.4 µM) | 8 (≈ 22.8 µM) |
| CC(=O)NC[C@H]1CN(c2ccc(N3CC(N(C)CCF)C3)c(F)c2)C(=O)O1 [Example 3, (S)-N-[[3-[3-fluoro-4-[3-[N-(2-fluoroethyl)-N-methylamino]-1-azetidinyl]phenyl]-2-oxo-5-oxazolidinyl]methyl]acetamide] | – | – | 8 (≈ 20.9 µM) | 16 (≈ 41.8 µM) |
| CC(=O)NC[C@H]1CN(c2ccc(N3C[C@@H](O)[C@@H](O)C3)c(F)c2)C(=O)O1 [Example 9, (S)-N-[[3-[4-(3,4-cis-dihydroxypyrrolidinyl)-3-fluorophenyl]-2-oxo-5-oxazolidinyl]methyl]acetamide] | – | – | 2 (≈ 5.66 µM) | 8 (≈ 22.6 µM) |
| COC(=O)N[C@H]1CN(c2ccc(N3C[C@H](CNC(C)=O)OC3=O)cc2F)C[C@H]1C (relative stereo) [Example 14] | – | – | 1 (≈ 2.45 µM) | 4 (≈ 9.79 µM) |
| CC(=O)NC[C@H]1CN(c2ccc(N3C[C@@H](C)[C@@H](NS(C)(=O)=O)C3)c(F)c2)C(=O)O1 (relative stereo) [Example 16] | – | – | 1 (≈ 2.33 µM) | 8 (≈ 18.7 µM) |
| CC(=O)NC[C@H]1CN(c2ccc(N3CC(=O)C3)c(F)c2)C(=O)O1 [Example 4, (S)-N-[[3-[3-fluoro-4-(3-oxo-1-azetidinyl)phenyl]-2-oxo-5-oxazolidinyl]methyl]acetamide] | – | – | 0.5 (≈ 1.56 µM) | 1 (≈ 3.11 µM) |
| CC(=O)NC[C@H]1CN(c2ccc(N3CCC(O)C3)c(F)c2)C(=O)O1 (stereo partly drawn) [Example 10, (S)-N-[[3-[4-(3-hydroxypyrrolidinyl)-3-fluorophenyl]-2-oxo-5-oxazolidinyl]methyl]acetamide] | – | – | 1 (≈ 2.96 µM) | 2 (≈ 5.93 µM) |
| COC1CN(c2ccc(N3C[C@H](CNC(C)=O)OC3=O)cc2F)C1 [Example 1, (S)-N-[[3-[3-fluoro-4-(3-methoxy-1-azetidinyl]phenyl]-2-oxo-5-oxazolidinyl]methyl]acetamide] | – | – | 2 (≈ 5.93 µM) | 4 (≈ 11.9 µM) |
